Assay results published in PMC8760490, “Discovery of novel furanylbenzamide inhibitors that target oncogenic tyrosine phosphatase SHP2 in leukemia cells” (The Journal of Biological Chemistry, 2021).

Columns and labels:
[1] = target: T1, full-length SHP2-E76K oncogenic mutant (Homo sapiens, UniProt Q06124, E76K); assay: DiFMUP fluorescence phosphatase inhibition assay, SHP2-E76K; format: biochemical; details: for IC50: DiFMUP at Km (20 μM), 10-point dose–response, pH 6.0
T1 construct: Recombinant human full-length SHP2 (1–594) WT and E76K mutants; made in house
T1 sequence (Q06124 1-593 E76K): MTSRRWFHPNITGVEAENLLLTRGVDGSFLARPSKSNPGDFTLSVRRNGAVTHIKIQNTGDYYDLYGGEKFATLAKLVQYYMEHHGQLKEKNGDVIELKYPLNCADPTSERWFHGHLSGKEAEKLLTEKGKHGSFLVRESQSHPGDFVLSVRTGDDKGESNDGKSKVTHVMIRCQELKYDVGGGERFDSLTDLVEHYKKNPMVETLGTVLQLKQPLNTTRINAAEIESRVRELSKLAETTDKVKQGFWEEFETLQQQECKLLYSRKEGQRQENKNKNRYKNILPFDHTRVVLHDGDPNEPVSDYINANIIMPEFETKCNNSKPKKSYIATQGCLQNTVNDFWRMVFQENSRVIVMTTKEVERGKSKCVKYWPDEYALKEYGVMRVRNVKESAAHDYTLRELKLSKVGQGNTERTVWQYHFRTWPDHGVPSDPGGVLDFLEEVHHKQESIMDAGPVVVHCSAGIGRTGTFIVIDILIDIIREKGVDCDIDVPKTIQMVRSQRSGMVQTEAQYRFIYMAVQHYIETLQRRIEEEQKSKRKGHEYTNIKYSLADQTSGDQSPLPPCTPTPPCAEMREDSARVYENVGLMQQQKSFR
Text: (§1) To test the synthesized compounds for their potential to inhibit SHP2 activity, a fluorescence intensity-based assay using 6,8-difluoro-4-methylumbelliferyl phosphate (DiFMUP) as the substrate was adapted for three recombinant SHP2 constructs: (1) the SHP2 catalytic domain (SHP2cat; residues 248–527), (2) the full-length SHP2-E76K oncogenic mutant, and (3) the full-length SHP2 WT (SHP2-WT). The recombinant SHP2 proteins were expressed and purified as described previously ([36]). A dually phosphorylated peptide derived from the insulin receptor substrate 1 (IRS-1) served as a surrogate binding protein and was used to activate SHP2-WT ([30], [36]). […] Michaelis–Menten experiments to determine the DiFMUP Michaelis–Menten constant (Km) for each SHP2 construct were performed as described previously ([36]) and yielded the following values: SHP2-WT, Km = 60 μM; SHP2-E76K, Km = 20 μM; and SHP2cat, Km = 20 μM. Relative maximum rates (Vmax) of the DiFMUP reactions expressed as relative fluorescence units per minute (RFU/min) were as follows: SHP2-WT, Vmax = 871 RFU/min; SHP2-E76K, Vmax = 2730 RFU/min; and SHP2cat, Vmax = 2912 RFU/min. IC50 values for each compound were determined from initial rates in 10-point dose–response assays using DiFMUP at a concentration corresponding to its Km value for the respective SHP2 construct. […] Replacements for the benzothiophenone were explored using analog #10.
(§2) Recombinant human full-length SHP2 (1–594) WT and E76K mutants, as well as the SHP2cat (248–527), were expressed and purified as described before ([36], [41]). Recombinant human PTP1B (1–300) and the codon-optimized STEP (280–566) catalytic domains were cloned into PET-15b and expressed as N-His-tagged fusion proteins. For expression, transformed BL21(DE3) cells were grown and induced similar as described for SHP2. Collected cells were resuspended in lysis buffer (25 mM Tris, pH 7.5, 300 mM NaCl, 50 mM imidazole, and 10% glycerol) with 100 mg/l RNaseA and were lysed with two passages using a microfluidizer. The lysate was clarified by centrifugation at 15,000g for 50 min and applied to nickel–nitrilotriacetic acid resin. The column resin was washed, and the PTP1B or STEP protein was eluted in lysis buffer at 300 mM imidazole. The PTP1B or STEP protein was further purified by S75 size-exclusion chromatography in 50 mM Tris, pH 7.5, 50 mM NaCl. The eluted peak fractions were supplemented with tris(2-carboxyethyl)phosphine to 10 mM, concentrated by ultrafiltration, and stored at −80 °C. The purified yield of PTP1B was 33 mg/l cell culture; the yield of STEP was 16 mg/l cell culture.
(§3) SHP2 inhibitors were tested at RT in a 384-well plate format standard phosphatase fluorescence intensity assay using DiFMUP (Invitrogen/Thermo Fisher Scientific) as a substrate and a total reaction volume of 25 μl. SHP2 inhibitors or vehicle (DMSO) were spotted in triplicate into a black Greiner FLUOTRAC 200 384-well microplate (catalog no.: 781076; Greiner) for a 10-point dose–response assay using an Echo 555 Liquid Handler (Labcyte, Inc). PTP working solutions were prepared at a 0.625 nM concentration (for a final concentration of 0.5 nM) in buffer containing 50 mM Bis–Tris, pH 6.0, 50 mM NaCl, 5 mM DTT, and 0.01% Tween-20. Prior to the assay, a dually phosphorylated IRS-1 peptide (625 nM [500 nM final] ([30])) was added to full-length WT SHP2 working solutions and incubated for 20 min. DiFMUP working solutions at 5× final concentration were prepared in 50 mM Bis–Tris, pH 6.0, 50 mM NaCl, and 0.01% Tween-20. About 20 μl of PTP working solution was dispensed into the microplate and incubated with inhibitor for 20 min at RT. […] The reaction was initiated by addition of 5 μl DiFMUP working solutions. Fluorescence intensity was measured in kinetic mode (every minute for 7 or 10 min) using a Tecan Spark Multimode Microplate Reader (Tecan) with an excitation wavelength of 360 nm and an emission wavelength of 460 nm. […]

[2] = target: T2, full-length SHP2 WT (SHP2-WT) (Homo sapiens, UniProt Q06124); assay: DiFMUP fluorescence phosphatase inhibition assay, SHP2-WT activated with IRS-1 peptide; format: biochemical; details: DiFMUP at Km (60 μM), pH 6.0
T2 construct: Recombinant human full-length SHP2 (1–594) WT and E76K mutants; made in house
Text: as §1, §2, §3

| Compound | IC50 [1] [µM] | IC50 [2] [µM] | loss in potency compared with #01 ([1]; E76K IC50) [fold] |
| --- | --- | --- | --- |
| O=C(NCCO)c1cc(-c2ccc(/C=C3\Sc4ccccc4C3=O)o2)ccc1O [SBI-1457, (Z)-2-Hydroxy-N-(2-hydroxyethyl)-5-(5-((3-oxobenzo[b]thiophen-2(3H)-ylidene)methyl)furan-2-yl)benzamide] | > 100 | > 100 |  |
| O=C1/C(=C/c2ccc(-c3ccc(O)c(C(=O)N4CCNCC4)c3)o2)Sc2ccccc21 [SBI-2124, (Z)-2-((5-(4-Hydroxy-3-(piperazine-1-carbonyl)phenyl)furan-2-yl)methylene)benzo[b]thiophen-3(2H)-one] | 91 | > 100 |  |
| CN1CCN(C(=O)c2cc(-c3ccc(/C=C4\Sc5ccccc5C4=O)o3)ccc2O)CC1 [SBI-2125, (Z)-2-((5-(4-Hydroxy-3-(4-methylpiperazine-1-carbonyl)phenyl)furan-2-yl)methylene)benzo[b]thiophen-3(2H)-one] | > 100 | > 100 |  |
| O=C(Nc1ccccc1)c1cc(-c2ccc(/C=C3\Sc4ccccc4C3=O)o2)ccc1F [SBI-2348, (Z)-2-Fluoro-5-(5-((3-oxobenzo[b]thiophen-2(3H)-ylidene)methyl)furan-2-yl)-N-phenylbenzamide] | > 100 | > 100 |  |
| COc1ccc(-c2ccc(/C=C3\Sc4ccccc4C3=O)o2)cc1C(=O)Nc1ccccc1 [SBI-2349, (Z)-2-Methoxy-5-(5-((3-oxobenzo[b]thiophen-2(3H)-ylidene)methyl)furan-2-yl)-N-phenylbenzamide] | 84 | 87 |  |
| O=C1/C(=C/c2ccc(-c3ccccc3)o2)Sc2ccccc21 [SBI-3570, (Z)-2-((5-phenylfuran-2-yl)methylene)benzo[b]thiophen-3(2H)-one] | > 100 | > 100 |  |
| O=C1/C(=C/c2ccc(-c3ccc(O)cc3)o2)Sc2ccccc21 [SBI-4167, (Z)-2-((5-(4-Hydroxyphenyl)furan-2-yl)methylene)benzo[b]thiophen-3(2H)-one] | 79 | > 100 | ~165 |
| O=C(Nc1ccccc1)c1cc(-c2ccco2)ccc1O [SBI-4232, 5-(Furan-2-yl)-2-hydroxy-N-phenylbenzamide] | > 100 | > 100 |  |

Compounds with a lower IC50 [1], results first:

| IC50 [1] [µM] | IC50 [2] [µM] | loss in potency compared with #01 ([1]; E76K IC50) [fold] | Compound |
| --- | --- | --- | --- |
| 20 | 53 |  | CC(C)NC(=O)c1cc(-c2ccc(/C=C3\Sc4ccccc4C3=O)o2)ccc1O [SBI-0287, (Z)-2-Hydroxy-N-isopropyl-5-(5-((3-oxobenzo[b]thiophen-2(3H)-ylidene)methyl)furan-2-yl)benzamide] |
| 65 | > 100 |  | O=C(NCc1ccccc1)c1cccc(-c2ccc(/C=C3\Sc4ccccc4C3=O)o2)c1 [SBI-2129, (Z)-N-benzyl-3-(5-((3-oxobenzo[b]thiophen-2(3H)-ylidene)methyl)furan-2-yl)benzamide] |
| 39 | 56 |  | O=C1CCCCC1=Cc1ccc(-c2ccc(O)c(C(=O)O)c2)o1 [SBI-3194, 2-Hydroxy-5-(5-((2-oxocyclohexylidene)methyl)furan-2-yl)benzoic acid] |
| 52 | 62 |  | O=C(Nc1ccccc1)c1cccc(-c2ccc(/C=C3\Sc4ccccc4C3=O)o2)c1 [SBI-5923, (Z)-3-(5-((3-Oxobenzo[b]thiophen-2(3H)-ylidene)methyl)furan-2-yl)-N-phenylbenzamide] |
